Reference: patent US20160122386A1, “V1A RECEPTOR AGONISTS” (FERRING B.V., priority 2014, published 2016)
Starred links: 1 amine or outer side, 2 acyl side, 3 side chain; linkers in the order of their positions; H or OH if unused. Positions of bridges follow the written chain, without caps; N, C: chain ends. Non-standard residues stand in square brackets, D forms with d. Residues, ends and D or L forms follow the SMILES beside them. Chains are numbered I, II in the order given. *: point of attachment. d(isoGln) = NC(=O)[C@@H](CCC(=O)[*:2])N[*:1]; isoGln = NC(=O)[C@H](CCC(=O)[*:2])N[*:1]; d(εLys) = N[C@H](CCCCN[*:1])C(=O)[*:2]; εLys = N[C@@H](CCCCN[*:1])C(=O)[*:2]; Dab = NCC[C@H](N)C(=O)O; PhAc = O=C(Cc1ccccc1)*

Target: T1, human V1aR (Homo sapiens, UniProt P37288)
T1 construct: expressed in transfected cells
Test: Agonist activity at vasopressin V1a receptors, cell-based FLIPR calcium assay
Conditions: for Emax: read-out: Efficacy Avg. (%)
Outline: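 HEK Flp-In cells stably expressing human V1aR were loaded with Calcium 4 dye plus 2.5 mM probenecid for 1 h at 37 °C, then given half-log compound concentrations (final 0.1% DMSO) on FLIPR Tetra.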

T1 sequence (P37288 whole entry): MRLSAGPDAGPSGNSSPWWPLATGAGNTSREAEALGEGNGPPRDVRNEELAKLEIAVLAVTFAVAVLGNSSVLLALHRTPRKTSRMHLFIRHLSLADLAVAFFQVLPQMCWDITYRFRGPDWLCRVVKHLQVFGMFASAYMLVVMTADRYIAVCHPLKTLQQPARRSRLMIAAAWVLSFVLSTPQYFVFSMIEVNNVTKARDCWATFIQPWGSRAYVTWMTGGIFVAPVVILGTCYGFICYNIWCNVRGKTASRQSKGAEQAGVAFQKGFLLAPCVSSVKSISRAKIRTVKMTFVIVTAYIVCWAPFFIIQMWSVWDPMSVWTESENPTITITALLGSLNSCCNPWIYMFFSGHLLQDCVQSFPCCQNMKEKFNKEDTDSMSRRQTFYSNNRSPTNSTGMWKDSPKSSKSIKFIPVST

## CC[C@H](C)[C@@H]1NC(=O)[C@H](Cc2ccccc2)NC(=O)[C@@H](N)CSSC[C@@H](C(=O)N2CCC[C@H]2C(=O)N[C@@H](CCNC(=O)[C@H](N)CCCCNC(=O)CC[C@H](NC(=O)[C@H](CCCNC(=N)N)NC(=O)[C@@H]2CCCN2C(=O)[C@H](C)NC(=O)[C@H](CC(N)=O)NC(=O)[C@H](CCC(N)=O)NC(=O)[C@H](Cc2ccccc2)NC(=O)[C@@H](Cc2ccc(OC)cc2)NC(=O)Cc2ccccc2)C(N)=O)C(=O)NCC(N)=O)NC(=O)[C@H](CC(N)=O)NC(=O)[C@H](CCC(N)=O)NC1=O [Compound 39] (I: H-CFIQNCP[Dab]G-NH2 / II: PhAc-[dY](Me)FQNAPR[isoGln][d(εLys)]; disulfide I:1-I:6; amide I:8-II:C)
  EC50: 1.8 nM
  Emax: 48%

## CC[C@H](C)[C@@H]1NC(=O)[C@H](Cc2ccccc2)NC(=O)[C@@H](N)CSSC[C@@H](C(=O)N2CCC[C@H]2C(=O)N[C@@H](CCCNCCCCCNC(=O)CC[C@H](NC(=O)[C@H](CCCNC(=N)N)NC(=O)[C@@H]2CCCN2C(=O)[C@H](CCN)NC(=O)[C@H](CC(N)=O)NC(=O)[C@H](CCC(N)=O)NC(=O)[C@H](Cc2ccccc2)NC(=O)[C@@H](Cc2ccc(OC)cc2)NC(=O)Cc2ccccc2)C(N)=O)C(=O)NCC(N)=O)NC(=O)[C@H](CC(N)=O)NC(=O)[C@H](CCC(N)=O)NC1=O [Compound 16]
  EC50: 2.4 nM
  Emax: 46%

## CC[C@H](C)[C@@H]1NC(=O)[C@H](Cc2ccccc2)NC(=O)[C@@H](N)CSSC[C@@H](C(=O)N2CCC[C@H]2C(=O)N[C@@H](CCCNCCCCCNC(=O)CC[C@H](NC(=O)[C@H](CCCNC(=N)N)NC(=O)[C@@H]2CCCN2C(=O)[C@H](Cc2c[nH]cn2)NC(=O)[C@H](CC(N)=O)NC(=O)[C@H](CCC(N)=O)NC(=O)[C@H](Cc2ccccc2)NC(=O)[C@@H](Cc2ccc(OC)cc2)NC(=O)Cc2ccccc2)C(N)=O)C(=O)NCC(N)=O)NC(=O)[C@H](CC(N)=O)NC(=O)[C@H](CCC(N)=O)NC1=O [Compound 13]
  EC50: 2.4 nM
  Emax: 48%

## CC[C@H](C)[C@@H]1NC(=O)[C@H](Cc2ccccc2)NC(=O)[C@@H](N)CSSC[C@@H](C(=O)N2CCC[C@H]2C(=O)N[C@@H](CCNC(=O)[C@@H](N)CCCCNC(=O)CC[C@@H](NC(=O)[C@H](CCCNC(=N)N)NC(=O)[C@@H]2CCCN2C(=O)[C@H](C)NC(=O)[C@H](CC(N)=O)NC(=O)[C@H](CCC(N)=O)NC(=O)[C@H](Cc2ccccc2)NC(=O)[C@@H](Cc2ccc(OC)cc2)NC(=O)Cc2ccccc2)C(N)=O)C(=O)NCC(N)=O)NC(=O)[C@H](CC(N)=O)NC(=O)[C@H](CCC(N)=O)NC1=O [Compound 54] (I: H-CFIQNCP[Dab]G-NH2 / II: PhAc-[dY](Me)FQNAPR[d(isoGln)][εLys]; disulfide I:1-I:6; amide I:8-II:C)
  EC50: 1.4 nM
  Emax: 51%
